Converted amounts (≈) assume the structure as drawn.
Experiments:
[1] = target: TAK1/TAB1 (Homo sapiens, UniProt O43318); assay: Competitive inhibition of recombinant TAK1-TAB1 assessed as [33P]gamma-ATP incorporation into substrate histone H1 peptide by filter plate assay; type: protein-complex assay
[2] = target: T1, Mitogen-activated protein kinase kinase kinase 7 (Homo sapiens) (UniProt O43318); assay: Competitive inhibition of TAK1 overexpressed in Hela cells assessed as TAK1 autophosphorylation on Thr187 by ELISA
T1 sequence (whole entry): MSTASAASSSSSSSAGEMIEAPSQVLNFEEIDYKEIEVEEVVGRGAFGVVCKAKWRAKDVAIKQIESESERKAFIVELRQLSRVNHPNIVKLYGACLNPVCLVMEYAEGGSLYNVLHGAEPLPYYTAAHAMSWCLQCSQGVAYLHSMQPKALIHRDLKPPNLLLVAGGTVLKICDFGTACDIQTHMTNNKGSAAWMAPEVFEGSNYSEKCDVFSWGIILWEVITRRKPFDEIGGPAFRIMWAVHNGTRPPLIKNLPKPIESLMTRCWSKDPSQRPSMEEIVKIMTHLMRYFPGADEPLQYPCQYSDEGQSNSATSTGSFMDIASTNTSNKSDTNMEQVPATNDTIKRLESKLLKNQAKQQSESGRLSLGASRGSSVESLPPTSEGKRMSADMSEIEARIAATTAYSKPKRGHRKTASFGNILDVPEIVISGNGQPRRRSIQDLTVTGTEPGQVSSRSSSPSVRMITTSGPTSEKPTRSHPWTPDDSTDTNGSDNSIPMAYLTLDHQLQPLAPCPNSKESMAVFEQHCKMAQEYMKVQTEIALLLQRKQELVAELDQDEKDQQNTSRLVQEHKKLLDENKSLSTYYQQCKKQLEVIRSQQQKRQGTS

[3] = tested on: HeLa; assay: Cytotoxicity against human HeLa cells; type: cell-based
[4] = Solubility in phosphate buffer at pH 7.4; type: physicochemical
[5] = target: TAK1/TAB1 (Homo sapiens) (UniProt Q15750+O43318); assay: Competitive inhibition of recombinant TAK1-TAB1 assessed as [33P]gamma-ATP incorporation into substrate histone H1 peptide at 10 uM by filter plate assay; type: protein-complex assay

Sequence of TAK1/TAB1 (Q15750 whole entry, one chain of several): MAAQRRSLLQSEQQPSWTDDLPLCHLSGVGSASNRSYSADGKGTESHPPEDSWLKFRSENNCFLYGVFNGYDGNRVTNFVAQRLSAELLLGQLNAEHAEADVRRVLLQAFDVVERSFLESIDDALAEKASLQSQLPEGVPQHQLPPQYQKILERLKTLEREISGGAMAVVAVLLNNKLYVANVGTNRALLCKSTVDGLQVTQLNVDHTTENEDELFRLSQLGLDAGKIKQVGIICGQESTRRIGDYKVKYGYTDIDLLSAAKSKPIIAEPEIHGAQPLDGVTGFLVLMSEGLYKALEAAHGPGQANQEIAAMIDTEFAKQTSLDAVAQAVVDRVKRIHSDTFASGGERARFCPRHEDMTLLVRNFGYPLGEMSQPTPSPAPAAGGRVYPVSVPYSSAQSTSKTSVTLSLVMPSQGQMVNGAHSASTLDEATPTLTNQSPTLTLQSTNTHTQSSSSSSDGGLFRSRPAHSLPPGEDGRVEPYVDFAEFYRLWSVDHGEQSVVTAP

Row | SMILES | IC50 [1] [µM] | inhibition [5] [%] | other results
1 | O=C1Nc2ccccc2/C1=C/C(=O)c1ccccc1 | > 5 | – | –
2 | O=C1Nc2ccccc2/C1=N/N=C1\N=NCN1c1ccc(O)cc1 | – | 0 | –
3 | O=C1Nc2ccccc2/C1=N/N=C1\SCC(=O)N1c1cnccc1O | 25 | – | –
4 | O=C1Nc2ccccc2/C1=C\c1c[nH]cn1 | – | 32 | –
5 | O=C1Nc2ccccc2C1c1ccnc(Nc2ccccc2O)n1 (configuration not stated) | – | 52 | –
6 | O=C1Nc2ccccc2/C1=C/C(=O)c1cccc(O)c1 | 4.1 | – | –
7 | O=C1Nc2ccccc2/C1=N/N=C1\SCC(=O)N1c1cccc(Oc2ccccc2)c1 | – | 0 | –
8 | O=C1Nc2ccccc2/C1=C/C(=O)c1ccc(O)c(O)c1 | 0.56 | – | –
9 | O=C1Nc2ccccc2/C1=N/N=C1\SCC(=O)N1Cc1ccncc1 | 8.2 | – | –
10 | O=C1Nc2ccccc2/C1=C\c1ccc(O)c(O)c1O | 1.7 | – | –
11 | O=C1Nc2ccccc2/C1=N/N=C1\SCC(=O)N1CC1CCCN1 (configuration not stated) | 30 | – | –
12 | C/C(C(=O)c1ccccc1)=C1/C(=O)Nc2ccccc21 | – | 39 | –
13 | O=C1Nc2ccccc2/C1=C/C(=O)c1ccc(O)cc1O | – | 21 | –
14 | O=C1Nc2ccccc2C1c1ccnc(Nc2ccc(O)cc2)n1 (configuration not stated) | – | 39 | –
15 | O=C1Nc2ccccc2/C1=C\c1ccc(O)c(O)c1 | > 5 | – | –
16 | O=C1CS/C(=N\N=C2/C(=O)Nc3ccccc32)N1 | > 5 | – | –
17 | O=C1Nc2ccccc2/C1=N/N=C1\SCC(=O)N1c1ccccc1O | 5.8 | – | –

The next lines start with results.

Row | IC50 [1] [µM] | inhibition [5] [%] | SMILES | other results
18 | 3 | – | O=C1Nc2ccc(OC(F)(F)F)cc2/C1=N/N=C1\SCC(=O)N1c1ccc(O)cc1 | –
19 | 0.046 | – | O=C1Nc2ccccc2/C1=N/N=C1\SCC(=O)N1c1ccc(O)cc1 | IC50 [2]: 11 µM; IC50 [3]: > 100 µM; solubility [4]: 65 µM (≈ 22.9 µg/mL)
20 | – | 4 | O=C1Nc2cccc(Cl)c2/C1=N/N=C1\SCC(=O)N1c1ccc(O)cc1 | –
21 | 0.099 | – | O=C1Nc2ccc(F)cc2/C1=N/N=C1\SCC(=O)N1c1ccc(O)cc1 | –
22 | 0.63 | – | CC1S/C(=N\N=C2/C(=O)Nc3ccc(Cl)cc32)N(c2ccc(O)cc2)C1=O (configuration not stated) | –
23 | > 50 | – | CN(C)c1ccc(N2C(=O)CS/C2=N\N=C2/C(=O)Nc3ccccc32)cc1 | –
24 | > 5 | – | CCC1S/C(=N\N=C2/C(=O)Nc3ccc(Cl)cc32)N(c2ccc(O)cc2)C1=O (configuration not stated) | –
25 | 0.021 | – | O=C1Nc2ccc(Cl)cc2/C1=N/N=C1\SCC(=O)N1c1ccc(O)cc1 | –
26 | – | 0 | Cc1ccc(N2C(=O)CS/C2=N\N=C2/C(=O)Nc3ccccc32)cc1 | –
27 | 0.098 | – | Cc1ccc2c(c1)/C(=N/N=C1\SCC(=O)N1c1ccc(O)cc1)C(=O)N2 | –
28 | 29 | – | O=C1Nc2ccccc2/C1=N/N=C1\SCC(=O)N1c1cccc(O)c1 | –
29 | 0.0089 | – | O=C1Nc2ccc(Br)cc2/C1=N/N=C1\SCC(=O)N1c1ccc(O)cc1 | solubility [4]: 3.1 µM (≈ 1.34 µg/mL)
30 | > 5 | – | COc1ccc(N2C(=O)CS/C2=N\N=C2/C(=O)Nc3ccccc32)cc1 | –
31 | – | 0 | Cc1c(Cl)ccc2c1NC(=O)/C2=N\N=C1/SCC(=O)N1c1ccc(O)cc1 | –
32 | > 5 | – | CC(C)C1S/C(=N\N=C2/C(=O)Nc3ccc(Cl)cc32)N(c2ccc(O)cc2)C1=O (configuration not stated) | –
33 | – | 6 | O=C1Nc2ccccc2/C1=N/N=C1\SCC(=O)N1c1ccc(OCc2ccccc2)cc1 | –

Source: ChEMBL document CHEMBL1759936, “Oxindole derivatives as inhibitors of TAK1 kinase” (Bioorg Med Chem Lett, 2011)
